What all share (format): functional
The target of experiment [1] is T1, Cdk-related protein kinase 6 (Plasmodium falciparum, UniProt O77239).
T1 sequence (O77239 whole entry): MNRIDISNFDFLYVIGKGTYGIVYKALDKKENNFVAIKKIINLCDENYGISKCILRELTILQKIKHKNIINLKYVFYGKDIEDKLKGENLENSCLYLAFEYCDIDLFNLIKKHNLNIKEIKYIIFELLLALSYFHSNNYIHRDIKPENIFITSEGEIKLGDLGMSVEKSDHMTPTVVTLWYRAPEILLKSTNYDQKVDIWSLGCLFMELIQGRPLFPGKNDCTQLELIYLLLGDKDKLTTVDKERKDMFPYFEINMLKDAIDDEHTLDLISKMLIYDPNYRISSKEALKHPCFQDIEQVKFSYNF
The experiment is described as follows: Final concentrations were 1.5 uM ATP, 5 mM MnCl2, and 15 ug/ml PK6 in a buffer of 100 mM Tris-HCl (pH 7.5). 50 ug/mL MBP was provided as the substrate; 10 uM staurosporine was used as a control inhibitor. Incubation time was 3 hours and 40 minutes.The catalytic activity of each kinase was considered proportional to ATP consumed, as determined from measurements of residual [ATP] with the luciferase-based reagent Kinase-Glo (Promega) following incubation. Luminescence (proportional to residual [ATP]) was measured on the plate readers FLx800 (BioTek Instruments, Winooski, VT, USA) and MicroBeta2. (In Kinase-Glo more light means more ATP remaining.)

The target of experiment [2] is T2, Putative uncharacterized protein pk7 (Plasmodium falciparum, UniProt O96214).
T2 sequence (O96214 whole entry): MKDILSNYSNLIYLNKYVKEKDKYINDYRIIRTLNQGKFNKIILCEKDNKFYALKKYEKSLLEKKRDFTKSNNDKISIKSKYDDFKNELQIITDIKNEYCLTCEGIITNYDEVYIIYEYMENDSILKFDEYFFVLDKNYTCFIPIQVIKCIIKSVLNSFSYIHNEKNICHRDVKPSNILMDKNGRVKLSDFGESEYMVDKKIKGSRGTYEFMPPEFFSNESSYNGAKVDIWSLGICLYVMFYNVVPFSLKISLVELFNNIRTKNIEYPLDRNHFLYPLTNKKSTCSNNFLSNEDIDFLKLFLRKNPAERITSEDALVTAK
The experiment is described as follows: Final concentrations were 1 uM ATP, 2 mM DTT, 20 mM MgCl2, 2 mM MnCl2, 0.01% BSA, and 6 ug/ml PK7, in a buffer of 20 mM Tris-HCl (pH 7.5). The enzyme itself was the only substrate present (since autophosphorylation occurs); 100 uM 1NA-PP1 was used as a control inhibitor. Incubation time was 3 hours.

The target in experiment [3] is T3, Mitogen-activated protein kinase (Plasmodium falciparum, UniProt Q25917).
T3 sequence (Q25917 whole entry): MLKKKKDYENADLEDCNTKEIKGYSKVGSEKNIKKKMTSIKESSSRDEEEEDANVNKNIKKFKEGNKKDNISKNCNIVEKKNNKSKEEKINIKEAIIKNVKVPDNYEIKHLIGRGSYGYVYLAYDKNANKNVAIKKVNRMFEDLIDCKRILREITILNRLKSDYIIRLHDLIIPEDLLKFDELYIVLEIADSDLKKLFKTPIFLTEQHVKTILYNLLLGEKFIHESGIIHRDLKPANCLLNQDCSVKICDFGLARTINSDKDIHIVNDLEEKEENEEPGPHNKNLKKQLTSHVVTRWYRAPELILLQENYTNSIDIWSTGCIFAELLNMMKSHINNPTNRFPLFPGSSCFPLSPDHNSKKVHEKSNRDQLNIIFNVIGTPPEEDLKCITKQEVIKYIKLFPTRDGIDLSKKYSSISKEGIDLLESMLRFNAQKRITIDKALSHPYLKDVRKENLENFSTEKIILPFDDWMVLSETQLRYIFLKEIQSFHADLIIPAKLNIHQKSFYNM
The experiment is described as follows: Final concentrations were 1 uM ATP, 0.5 mM DTT, 1 mM MgCl2, 0.5 mg/mL BSA, and 10 ug/ml MAP2 in a buffer of 50 mM HEPES (pH 7.0). 0.5 mg/mL histone III-S served as the substrate (13); 100 uM AMP-PNP, an ATP analog, was used as a control inhibitor. Incubation time was 4 hours.

The target of experiment [4] is Calcium-dependent protein kinase 1 (Plasmodium falciparum, UniProt P62344). In words: MMV: CDPK1 Protein kinase inhibition assay using recombinant PfCDPK1, syntide 2 peptide substrate, ATP and KinaseGlo to measure % inhibition at 1 uM MMV box compound.
Calcium-dependent protein kinase 1, sequence (P62344 whole entry): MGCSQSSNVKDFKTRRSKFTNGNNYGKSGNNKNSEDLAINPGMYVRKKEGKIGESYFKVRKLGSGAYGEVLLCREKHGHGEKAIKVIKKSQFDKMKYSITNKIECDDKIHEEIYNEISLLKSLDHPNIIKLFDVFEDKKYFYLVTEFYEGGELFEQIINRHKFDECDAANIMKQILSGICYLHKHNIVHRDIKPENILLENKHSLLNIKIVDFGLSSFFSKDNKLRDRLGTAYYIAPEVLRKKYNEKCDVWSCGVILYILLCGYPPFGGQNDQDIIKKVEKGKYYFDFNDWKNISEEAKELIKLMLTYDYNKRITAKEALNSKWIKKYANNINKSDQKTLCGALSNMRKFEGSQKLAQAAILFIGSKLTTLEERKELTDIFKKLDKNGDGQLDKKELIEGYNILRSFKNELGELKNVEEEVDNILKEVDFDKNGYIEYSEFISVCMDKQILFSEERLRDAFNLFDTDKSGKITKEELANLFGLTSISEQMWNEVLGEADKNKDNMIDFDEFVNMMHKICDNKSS
Experiment [5] deals with T4, Calcium-dependent protein kinase 4 (Plasmodium falciparum (isolate 3D7), UniProt Q8IBS5).
T4 sequence (Q8IBS5 whole entry): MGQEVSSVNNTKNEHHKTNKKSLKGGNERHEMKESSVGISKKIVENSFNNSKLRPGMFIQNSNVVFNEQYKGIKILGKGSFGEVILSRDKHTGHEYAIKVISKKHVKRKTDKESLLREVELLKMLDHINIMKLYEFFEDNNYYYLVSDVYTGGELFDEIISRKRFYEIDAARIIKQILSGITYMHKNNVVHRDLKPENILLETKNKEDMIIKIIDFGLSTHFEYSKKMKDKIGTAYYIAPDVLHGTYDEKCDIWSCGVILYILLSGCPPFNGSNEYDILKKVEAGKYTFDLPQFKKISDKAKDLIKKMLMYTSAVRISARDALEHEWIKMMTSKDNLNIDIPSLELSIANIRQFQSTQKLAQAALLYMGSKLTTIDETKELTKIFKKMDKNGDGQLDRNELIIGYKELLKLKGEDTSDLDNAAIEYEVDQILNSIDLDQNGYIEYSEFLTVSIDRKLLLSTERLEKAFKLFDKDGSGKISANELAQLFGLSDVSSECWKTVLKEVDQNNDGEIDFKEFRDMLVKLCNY
In words: MMV: CDPK4 Protein kinase inhibition assay using recombinant PfCDPK4, syntide2 peptide substrate, ATP and KinaseGlo to measure % inhibition at 1 uM MMV box compound.

A further experiment addresses T5, Proline--tRNA ligase (Plasmodium falciparum (isolate 3D7), UniProt Q8I5R7).
T5 sequence (Q8I5R7 whole entry): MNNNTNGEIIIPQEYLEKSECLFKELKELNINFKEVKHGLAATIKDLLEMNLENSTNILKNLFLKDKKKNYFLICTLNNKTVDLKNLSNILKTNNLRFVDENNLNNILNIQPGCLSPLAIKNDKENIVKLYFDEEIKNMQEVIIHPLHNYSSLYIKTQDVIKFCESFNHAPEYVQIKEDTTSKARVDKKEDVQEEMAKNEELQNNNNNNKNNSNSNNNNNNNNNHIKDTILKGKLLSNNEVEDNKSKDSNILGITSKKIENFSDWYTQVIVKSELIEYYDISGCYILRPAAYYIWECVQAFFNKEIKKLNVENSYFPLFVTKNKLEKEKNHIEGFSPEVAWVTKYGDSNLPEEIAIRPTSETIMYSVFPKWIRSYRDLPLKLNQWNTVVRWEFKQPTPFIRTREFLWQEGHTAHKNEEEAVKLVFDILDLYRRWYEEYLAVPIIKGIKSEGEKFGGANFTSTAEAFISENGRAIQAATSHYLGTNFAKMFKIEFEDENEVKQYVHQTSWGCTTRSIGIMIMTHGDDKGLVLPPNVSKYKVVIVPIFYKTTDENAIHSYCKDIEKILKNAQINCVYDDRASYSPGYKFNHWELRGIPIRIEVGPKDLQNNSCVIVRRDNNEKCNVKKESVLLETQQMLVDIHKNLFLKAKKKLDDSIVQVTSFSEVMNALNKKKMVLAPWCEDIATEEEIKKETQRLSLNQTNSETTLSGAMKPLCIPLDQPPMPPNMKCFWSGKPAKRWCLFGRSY
In words: MMV: ProRS recombinant Plasmodium falciparum Prolyl-tRNA-synthetase, assay with yeast tRNA, ATP, and proline and 3 uM MMV malaria box compound, assay read out with kinase glo as % inhibition.

Another experiment has as its target Lysine--tRNA ligase (Plasmodium falciparum (isolate 3D7), UniProt Q8IDJ8). In words: MMV: KRS recombinant Plasmodium falciparum Lysyl-tRNA-synthetase, assay with yeast tRNA, ATP, and lysine and 3 uM MMV malaria box compound, assay read out with kinase glo as % inhibition.

Bounds are passed on as bounds.

Lysine--tRNA ligase, sequence (Q8IDJ8 whole entry): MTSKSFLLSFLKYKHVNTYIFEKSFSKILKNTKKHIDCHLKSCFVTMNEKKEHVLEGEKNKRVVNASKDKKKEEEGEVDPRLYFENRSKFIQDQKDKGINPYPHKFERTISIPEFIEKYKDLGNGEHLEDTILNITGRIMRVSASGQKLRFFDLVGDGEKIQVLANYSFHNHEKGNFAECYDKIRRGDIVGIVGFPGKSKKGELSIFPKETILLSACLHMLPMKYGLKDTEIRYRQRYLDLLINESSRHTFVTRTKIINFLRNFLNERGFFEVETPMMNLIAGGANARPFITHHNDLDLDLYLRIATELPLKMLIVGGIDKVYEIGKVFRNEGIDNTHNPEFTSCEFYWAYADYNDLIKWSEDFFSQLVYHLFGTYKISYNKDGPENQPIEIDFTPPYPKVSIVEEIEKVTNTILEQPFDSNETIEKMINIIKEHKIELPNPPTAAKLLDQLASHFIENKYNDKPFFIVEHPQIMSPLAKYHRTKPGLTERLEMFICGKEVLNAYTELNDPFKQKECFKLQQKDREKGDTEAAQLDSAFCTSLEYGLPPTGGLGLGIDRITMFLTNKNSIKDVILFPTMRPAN

`CC(NCc1ccccc1)c1cc(Cl)ccc1O` (stereo not given): the IC50 (usually the point on the concentration scale where inhibition reaches its midpoint) in experiment [1] was more than 1 µM; in experiment [2], more than 1 µM; in experiment [3] it was more than 1 µM; in experiment [4], more than 1 µM; in experiment [5], more than 1 µM; on Proline--tRNA ligase it was more than 2.5 µM. Also, the concentration for half-maximal inhibition (IC50) at Lysine--tRNA ligase is more than 2.5 µM.

Turning to `OC(CNC1CCCCC1)Cn1c2ccc(I)cc2c2cc(I)ccc21` (stereo not given), the IC50 in experiment [1] was more than 1 µM; in experiment [2], more than 1 µM; in experiment [3], more than 1 µM; in experiment [4], more than 1 µM; in experiment [5] it was more than 1 µM; on Proline--tRNA ligase, more than 2.5 µM. In addition, the half-inhibitory concentration (IC50) on Lysine--tRNA ligase was more than 2.5 µM.

In the case of `CCCCCCOC(=O)C1=C(C)NC(=O)NC1c1ccccc1F` (stereo not given), the IC50 in experiment [1] was more than 1 µM; in experiment [2], more than 1 µM; in experiment [3] it was more than 1 µM; in experiment [4] it was more than 1 µM; in experiment [5], more than 1 µM; at Proline--tRNA ligase, more than 2.5 µM. At Lysine--tRNA ligase, the IC50 was more than 2.5 µM.

For `COc1ccc(CCn2c(=N)c(C(=O)NCc3cccnc3)cc3c(=O)n4cccc(C)c4nc32)cc1`, the IC50 in experiment [1] is more than 1 µM; in experiment [2], more than 1 µM; in experiment [3], more than 1 µM; in experiment [4], more than 1 µM; in experiment [5], more than 1 µM; on Proline--tRNA ligase, more than 2.5 µM. For the same compound, at Lysine--tRNA ligase, the IC50 was more than 2.5 µM.

With `Cn1c(C(=O)c2cccc3ccccc23)nc2ccccc21`, the IC50 in experiment [1] is more than 1 µM; in experiment [2], more than 1 µM; in experiment [3], more than 1 µM; in experiment [4] it was more than 1 µM; in experiment [5], more than 1 µM; on Proline--tRNA ligase, more than 2.5 µM. For the same compound, the IC50 on Lysine--tRNA ligase is more than 2.5 µM.

Regarding `COc1ccc(Br)cc1C1Nc2ccc3ccccc3c2C2=C1C(=O)CC(c1ccccc1)C2` (stereo not given), the half-maximal inhibitory concentration (IC50) in experiment [1] is more than 1 µM; in experiment [2], more than 1 µM; in experiment [3], more than 1 µM; in experiment [4], more than 1 µM; in experiment [5], more than 1 µM; on Proline--tRNA ligase it was more than 2.5 µM. The IC50 on Lysine--tRNA ligase is more than 2.5 µM.

In the case of `O=C1c2ccccc2C2=Nc3ccccc3SC(c3cccc(F)c3)C12` (stereo not given), the IC50 in experiment [1] is more than 1 µM; in experiment [2], more than 1 µM; in experiment [3], more than 1 µM; in experiment [4], more than 1 µM; in experiment [5], more than 1 µM; on Proline--tRNA ligase, more than 2.5 µM. The IC50 on Lysine--tRNA ligase was more than 2.5 µM.

Regarding `COc1ccc(-c2nonc2NC(=O)c2cccc(Cl)c2)cc1OC`, the IC50 is more than 1 µM in experiment [1]; more than 1 µM in experiment [2]; more than 1 µM in experiment [3]; more than 1 µM in experiment [4]; more than 1 µM in experiment [5]; more than 2.5 µM on Proline--tRNA ligase. Moreover, the IC50 at Lysine--tRNA ligase is more than 2.5 µM.

With `O=C(NNc1cc(N2CCCC2)nc(N2CCCC2)n1)c1ccccc1`, the IC50 is more than 1 µM in experiment [1]; more than 1 µM in experiment [2]; more than 1 µM in experiment [3]; more than 1 µM in experiment [4]; more than 1 µM in experiment [5]; more than 2.5 µM on Proline--tRNA ligase. Further, the IC50 at Lysine--tRNA ligase was more than 2.5 µM.

For `CCc1ccc(CNCC(O)c2ccccc2)cc1` (stereo not given), the IC50 is more than 1 µM in experiment [1]; more than 1 µM in experiment [2]; more than 1 µM in experiment [3]; more than 1 µM in experiment [4]; more than 1 µM in experiment [5]; more than 2.5 µM on Proline--tRNA ligase. Further, on Lysine--tRNA ligase, the IC50 was more than 2.5 µM.

In the case of `COc1ccc(-c2cc3c(SCC(=O)Nc4cc(C(F)(F)F)ccc4Cl)nccn3n2)cc1`, the IC50 in experiment [1] is more than 1 µM; in experiment [2] it was more than 1 µM; in experiment [3] it was more than 1 µM; in experiment [4], more than 1 µM; in experiment [5] it was more than 1 µM; on Proline--tRNA ligase it was more than 2.5 µM. Besides, on Lysine--tRNA ligase, the IC50 is more than 2.5 µM.

On to `Cc1cc(N2CCN(C3CCCC3)CC2)n2c(nc3ccccc32)c1C#N`, for which the IC50 was more than 1 µM in experiment [1]; more than 1 µM in experiment [2]; more than 1 µM in experiment [3]; more than 1 µM in experiment [4]; more than 1 µM in experiment [5]; more than 2.5 µM on Proline--tRNA ligase. Besides, the IC50 on Lysine--tRNA ligase was more than 2.5 µM.

On to `CN(C)CCNc1cc(-c2ccccc2)nc2ccccc12`, for which the IC50 in experiment [1] is more than 1 µM; in experiment [2], more than 1 µM; in experiment [3] it was more than 1 µM; in experiment [4], more than 1 µM; in experiment [5], more than 1 µM; at Proline--tRNA ligase, more than 2.5 µM. Moreover, at Lysine--tRNA ligase, the IC50 was more than 2.5 µM.

Turning to `O=C(Nc1ccc(Cl)c(Cl)c1)Nc1ccc(Cl)c(Cl)c1`, the IC50 in experiment [1] was more than 1 µM; in experiment [2] it was more than 1 µM; in experiment [3] it was more than 1 µM; in experiment [4] it was more than 1 µM; in experiment [5] it was more than 1 µM; on Proline--tRNA ligase, more than 2.5 µM. In addition, the IC50 at Lysine--tRNA ligase was more than 2.5 µM.

As to `OC(CNCC1CCCO1)Cn1c2ccc(Cl)cc2c2cc(Cl)ccc21` (stereo not given), the IC50 in experiment [1] is more than 1 µM; in experiment [2], more than 1 µM; in experiment [3], more than 1 µM; in experiment [4], more than 1 µM; in experiment [5], more than 1 µM; on Proline--tRNA ligase, more than 2.5 µM. In addition, the IC50 on Lysine--tRNA ligase is more than 2.5 µM.

For the origin of these results see ChEMBL document CHEMBL3301562, “MMV Box screening against Plasmodium falciparum protein kinases and aminoacyl tRNA synthetases”.
